Test results as given in patent US20170157055A1, “PHAR[…] DETERRENT COMPOSITION” (priority 2014, published 2017).
Read-outs that look alike come from different tables or passages of the source.

Protocol: 350 mg of potassium bicarbonate equivalent to single dosage unit was added in beaker 1 while of potassium bicarbonate equivalent to three dosage units were added in beaker 2.

O=C([O-])O.[K+] [potassium bicarbonate]
pH of media after addition (beaker 1: 350 mg (single dosage unit) in 900 ml 0.01N HCl (initial pH 1.90)): 2.30 | pH of media after addition (beaker 2: equivalent to three dosage units in 900 ml 0.01N HCl (initial pH 1.90)): 6.15
